Measured values: US20230181564A1, “Potent Tetrahydroquinolone Eliminates Apicomplexan Parasites” (The University of Chicago, priority 2020, published 2023)
In brackets after ≈: the same amount, converted by molar mass.

What was measured:
[1] = Kinetic/aqueous solubility in PBS pH 7.4; format: physicochemical; conditions: for PBS Sol pH7.4: solubility in Phosphate Buffered Saline pH 7.4, first value of cell
Procedure: PBS Sol/Toxicity pH7.4 refers to solubility of the compound in Phosphate Buffered Saline (PBS) at pH7.4. […] Parasites were RH-YFP expressing tachyzoites (Tachy) and EGS (Brady) strains. Studies of effects of inhibitors on HFF or on T.gondii tachyzoites were performed with triplicate wells in at least two biological replicate experiments. Studies of effects on bradyzoites were performed at least twice in at least two biological replicate experiments. Compounds with much less inhibition of mammalian than T. gondii cytochrome bc in the saffarine enzyme assay (indicated by **) provide potential to further develop compounds, if unanticipated toxicity occurs from JAG21.
Structure Activity Relationship (SAR) and comparison of effect on T.gondii and HFF enzyme activity. […] The MDCK-MDR1 Permeability Assay was also performed. […] These were measured by Chem Partners.

[2] = Metabolic stability in mouse liver microsomes; format: in vitro ADME; conditions: predicted half-life in mouse liver microsomes; no unit in table (101 minutes for JAG021)
[3] = test system: Human Foreskin Fibroblast (HFF); assay: Cytotoxicity assay with WST-1 on HFF; format: cell-based; conditions: WST assay, HFF; second value of cell
Procedure: PBS Sol/Toxicity pH7.4 refers to solubility of the compound in Phosphate Buffered Saline (PBS) at pH7.4. […] Tachy/Brady IC50 was determined in studies in which cultures of parasites in HFF were treated with varying concentrations of the compound and there was 50% inhibition of the replication (number) of parasites. Parasites were RH-YFP expressing tachyzoites (Tachy) and EGS (Brady) strains. Studies of effects of inhibitors on HFF or on T.gondii tachyzoites were performed with triplicate wells in at least two biological replicate experiments. Studies of effects on bradyzoites were performed at least twice in at least two biological replicate experiments. Compounds with much less inhibition of mammalian than T. gondii cytochrome bc in the saffarine enzyme assay (indicated by **) provide potential to further develop compounds, if unanticipated toxicity occurs from JAG21.
Cytotoxicity Assays in parallel with RH Strain T.gondii in vitro studies. Toxicity assays used WST-1 cell proliferation reagent (Roche) as in Fomovska et al. (2012). HFF were grown on a flat, clear-bottomed, black 96-well plate. Confluent HFF were treated with inhibitory compounds at concentrations of 10 μM and 50 μM. Compounds were diluted in IMDM-C, and 20 μL were added to each designated well, with triplicates for each condition. A gradient with 2 fold-decreasing concentrations of DMSO from 10% to 0% in colorless, translucent IMDM-C was used as a control. The plate was incubated for 72 hours at 37° C. 10 μL WST-1 reagent (Roche) were added to each well. Cells were incubated for 30-60 minutes. Absorbance was read using a fluorimeter at 420 nm. A higher degree of color change (and absorbance) indicated mitochondrial activity and cell viability.
Because T. gondii grows inside cells, if a compound were toxic to host HFF then it would make the compound appear to be spuriously effective (Fomovska et al. 2012; Fomovska et al. 2012a), when in actuality only toxicity for the host cell would be measured. Cytotoxicity to HFF was therefore assessed for all compounds at 10 μM. Results of this experiment are in Table 1, toxicity column. A two-way ANOVA and subsequent pairwise comparison found none of the differences in absorbance, compared to the media-DMSO vehicle controls, to be statistically significant (p>0.05). Most of these compounds are not toxic at 10 μM (the limit of solubility) and that cytotoxicity to cells can be attributed to DMSO in the solution, not the compound.

SMILES | PBS Sol pH7.4 [1] | Toxicity* (highest concentration tested that does not show toxicity to HFF) [3] | further results
Cc1[nH]c2c(c(=O)c1-c1ccc(Oc3cccc(OC(F)(F)F)c3)cc1)CCCC2 [AS006] | 0.55 μM | – | T1/2 (M) [2]: 25.88
Cc1[nH]c2c(c(=O)c1-c1ccc(Oc3cccc(C(F)(F)F)c3)cc1)CCCC2 [AS012] | 2.19 μM | – | T1/2 (M) [2]: 30.05
Cc1[nH]c2c(c(=O)c1-c1ccc(Oc3ccc(F)c(Cl)c3)cc1)CCCC2 [AS021] | 2 μM | – | T1/2 (M) [2]: 41.09
Cc1[nH]c2c(c(=O)c1-c1ccc(Oc3cc(Cl)cc(Cl)c3)cc1)CCCC2 [AS022] | 6.25 μM | – | T1/2 (M) [2]: 28.62
Cc1[nH]c2c(c(=O)c1-c1ccc(Oc3ccc4c(c3)OCO4)cc1)CCCC2 [AS032] | – | ND/5 μM | –
COc1ccc(Oc2ccc(-c3c(C)[nH]c4c(c3=O)CCCC4)cc2)cc1OC [AS033] | – | ND/5 μM | –
Cc1[nH]c2c(c(=O)c1-c1ccc(Oc3cc(Cl)nc(Cl)c3)cc1)CCCC2 [AS034] | 5.05 μM | – | T1/2 (M) [2]: 24.93
Cc1[nH]c2ccccc2c(=O)c1-c1ccc(Oc2ccc(OC(F)(F)F)cc2)cc1 [ELQ271, reference compound] | 0.15 μM | – | solubility ([1]; amorphous compounds): 0.2 µM (≈ 0.0823 µg/mL)
Cc1cc2[nH]c(C)c(-c3ccc(Oc4ccc(OC(F)(F)F)cc4)cc3)c(=O)n2n1 [JAG006] | – | ND/5 μM | –
CSc1nc2[nH]c(C)c(-c3ccc(Oc4ccc(OC(F)(F)F)cc4)cc3)c(=O)n2n1 [JAG013] | – | ND/5 μM | –
Cc1[nH]c2c(C#N)cnn2c(=O)c1-c1ccc(Oc2ccc(OC(F)(F)F)cc2)cc1 [JAG014] | – | ND/5 μM | –
Cc1[nH]c2cc(-c3ccccc3)nn2c(=O)c1-c1ccc(Oc2ccc(OC(F)(F)F)cc2)cc1 [JAG015] | – | ND/5 μM | –
Cc1[nH]c2c(c(=O)c1-c1ccc(Oc3ccc(C(=O)O)cc3)nc1)CCCC2 [JAG022] | – | ND/5 μM | –
Cc1c(-c2ccc(Oc3ccc(OC(F)(F)F)cc3)cc2)c(=O)c2c(n1C)CCCC2 [JAG023] | – | ND/5 μM | –
Cc1[nH]c2c(c(=O)c1-c1ccc(Oc3ccc(F)cc3)cc1)CCCC2 [JAG058] | 2.38 μM | – | T1/2 (M) [2]: 39.17
Cc1[nH]c2c(c(=O)c1-c1ccc(Oc3cccc(Cl)c3)cc1)CCCC2 [JAG062] | 0.33 μM | – | T1/2 (M) [2]: 12.42
Cc1[nH]c2c(c(=O)c1-c1ccc(Oc3ccc(C(F)(F)F)cc3)cc1)CCCC2 [JAG063] | 0.45 μM | – | T1/2 (M) [2]: 126.96
Cc1[nH]c2c(c(=O)c1-c1ccc(Oc3cccc(F)c3)cc1)CCCC2 [JAG069] | 0.5 μM | – | T1/2 (M) [2]: 17.38
Cc1c(-c2ccc(Oc3ccc(Cl)cc3)cc2)c(=O)c2c(n1C)CCCC2 [JAG077] | – | ND/5 μM | –
Cc1[nH]c2c(c(=O)c1-c1ccc(Oc3ccc(Cl)c(Cl)c3)cc1)CCCC2 [JAG084] | 0.68 μM | – | T1/2 (M) [2]: 63.1
O=C(O)c1[nH]c2c(c(=O)c1-c1ccc(Oc3ccc(OC(F)(F)F)cc3)cc1)CCCC2 [JAG091] | – | ND/5 μM | –
Cc1[nH]c2c(c(=O)c1-c1ccc(Oc3ccc(OC(F)(F)F)cc3)nc1)CCCC2 [JAG092] | – | ND/5 μM | –

SMILES | PBS Sol pH7.4 [1] | Toxicity* (highest concentration tested that does not show toxicity to HFF) [3] | further results
Cc1[nH]c2c(c(=O)c1-c1ccc(O)cc1)CCCC2 [JAG094] | – | ND/5 μM | –
O=c1[nH]c2c(c(=O)n1-c1ccc(Oc3ccccc3)cc1)CCCC2 [JAG095] | – | ND/5 μM | –
Cc1[nH]c2c(c(=O)c1-c1ccc(Oc3ccc(OC(F)(F)F)cc3)cc1)CC(C(F)(F)F)CC2 (stereo not shown) [JAG100] | – | ND/5 μM | –
Cc1[nH]c2c(c(=O)c1-c1ccc(Oc3ccc(OC(F)(F)F)cc3)cc1)CC(C)CC2 (stereo not shown) [JAG106] | – | ND/5 μM | –
Cc1[nH]c2c(c(=O)c1-c1ccc(Oc3ccc(OC(F)(F)F)cc3)cc1)CCC(C)C2 (stereo not shown) [JAG107] | 0.03 μM | – | T1/2 (M) [2]: 111.93
CCC1CCc2c([nH]c(C)c(-c3ccc(Oc4ccc(OC(F)(F)F)cc4)cc3)c2=O)C1 (stereo not shown) [JAG121] | 0.16 μM | – | T1/2 (M) [2]: 63.28
Cc1[nH]c2cnccc2c(=O)c1-c1ccc(Oc2ccc(OC(F)(F)F)cc2)cc1 [JAG129] | 5.12 μM | – | –
Cc1[nH]c2c(c(=O)c1-c1ccc(Oc3ccc(OC(F)(F)F)cc3)cc1)CCC(C(F)(F)F)C2 (stereo not shown) [JAG162] | 0.02 μM | – | T1/2 (M) [2]: 144.43
CCOC(=O)Oc1c2c(nc(C)c1-c1ccc(Oc3ccc(OC(F)(F)F)cc3)cc1)CCCC2 [JAG171] | – | ND/5 μM | –
CCC1CCc2c([nH]c(CO)c(-c3ccc(Oc4ccc(OC(F)(F)F)cc4)cc3)c2=O)C1 (stereo not shown) [JAG174] | – | ND/5 μM | –
O=c1c2c([nH]c(CO)c1-c1ccc(Oc3ccc(OC(F)(F)F)cc3)cc1)CC(C(F)(F)F)CC2 (stereo not shown) [JAG187] | – | ND/5 μM | –
CC1CCc2c([nH]c(CO)c(-c3ccc(Oc4ccc(OC(F)(F)F)cc4)cc3)c2=O)C1 (stereo not shown) [JAG193] | – | ND/5 μM | –
Cc1[nH]c2c(c(=O)c1-c1cccc(Oc3cc(Cl)cc(Cl)c3)c1)CCCC2 [JAG199] | – | ND/5 μM | –
Cc1[nH]c2c(c(=O)c1-c1cccc(Oc3ccc(F)c(Cl)c3)c1)CCCC2 [JAG200] | – | ND/5 μM | –
Cc1[nH]c2c(c(=O)c1-c1ccc(OCc3ccccc3)cc1)CCCC2 [JAG204] | – | ND/5 μM | –
Cc1[nH]c2c(c(=O)c1-c1ccc(Oc3cc(Cl)cc(Cl)c3)cc1)CCC(C)C2 (stereo not shown) [JAG208] | – | ND/5 μM | –
Cc1[nH]c2ccccc2c(=O)c1-c1ccc(Oc2ccccc2)cc1 [MJM129] | – | ND/5 μM | –
Cc1[nH]c2ncnn2c(=O)c1-c1ccc(Oc2ccc(OC(F)(F)F)cc2)cc1 [MJM136] | – | ND/5 μM | –
Cc1[nH]c2ccnn2c(=O)c1-c1ccc(Oc2ccc(OC(F)(F)F)cc2)cc1 [MJM141] | 0.94 μM | – | –
Cc1[nH]c2c(c(=O)c1-c1cccc(Oc3ccc(OC(F)(F)F)cc3)c1)CCCC2 [NP032] | – | ND/5 μM | –
Cc1[nH]c2c(c(=O)c1-c1cccc(Oc3ccc(Cl)cc3)c1)CCCC2 [NP034] | – | ND/5 μM | –
Cc1[nH]c2c(c(=O)c1-c1cccc(Oc3ccc(C(F)(F)F)cc3)c1)CCCC2 [NP035] | – | ND/5 μM | –
